The source of these data is PubChem BioAssay (NCI).

Some test systems named below: ACHN renal; COLO 205 colon; HOP-62 NSCLC; LOX IMVI melanoma; OVCAR-5 ovarian; SF-295 CNS; SK-MEL-2 melanoma; SR leukemia; TK-10 renal; UO-31 renal.
Common to all, as to assay: DTP human tumour cell line panel, 48 h

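Tested at 5 concentrations; 48 h exposure; 96-well plates; endpoints linearly interpolated, else capped at highest concentration. At the GI50, growth is halved. At the TGI there is no net growth.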 Where a SMILES comes first, the peptide text is derived from it. The star is where a group is joined. Cbz = O=C(OCc1ccccc1)*; CH2Cl = ClC*

Take `CCSc1ncnc2c1ncn2C1OC(CO)C(O)C1O` (centres undefined): the GI50 with ACHN renal is 0.425 µM; in the assay on COLO 205 colon, 0.777 µM; in the assay on HOP-62 NSCLC, 1.47 µM; with LOX IMVI melanoma it was 0.0945 µM; with OVCAR-5 ovarian, 0.65 µM; in the assay with SF-295 CNS, 0.843 µM. Further, the GI50 with SK-MEL-2 melanoma is 24.1 µM; in the assay with SR leukemia, 25.3 µM; with TK-10 renal, 1.56 µM; with UO-31 renal, 0.405 µM. Moreover, the TGI in the assay with ACHN renal was more than 100 µM; in the assay on COLO 205 colon it was more than 100 µM; with HOP-62 NSCLC, more than 100 µM; with LOX IMVI melanoma, 16.8 µM; with OVCAR-5 ovarian, more than 100 µM; with SF-295 CNS, more than 43.1 µM. The TGI in the assay with SK-MEL-2 melanoma, in the assay on SR leukemia, with TK-10 renal and with UO-31 renal was more than 100 µM throughout.

For the compound `Cc1c2c(C#N)nccc2c(C)c2c1c1ccccc1n2Cc1ccccc1`, the TGI in the assay with ACHN renal, in the assay with COLO 205 colon, in the assay with HOP-62 NSCLC, in the assay on LOX IMVI melanoma, with OVCAR-5 ovarian and in the assay on SF-295 CNS was more than 100 µM in each case. The TGI in the assay with SK-MEL-2 melanoma, in the assay with SR leukemia, in the assay on TK-10 renal and with UO-31 renal was more than 100 µM in each case.

With `O=C1/C(=C/c2ccc(Cl)cc2)CCC1CCN1CCOCC1` (centres undefined), the TGI with ACHN renal, with HOP-62 NSCLC, in the assay on LOX IMVI melanoma, with OVCAR-5 ovarian, in the assay with SF-295 CNS and with SK-MEL-2 melanoma was more than 100 µM in each case. Further, the concentration for total growth inhibition (TGI) with SR leukemia, with TK-10 renal and in the assay on UO-31 renal was more than 100 µM each time.

Regarding `C#C[C@]1(O)CCC2C3CCc4cc(O)ccc4C3CC[C@@]21C` (some centres undefined), the GI50 with ACHN renal was 9.42 µM; in the assay on COLO 205 colon it was 3.86 µM; in the assay with HOP-62 NSCLC, 4.34 µM; in the assay with LOX IMVI melanoma, 5.27 µM; in the assay on OVCAR-5 ovarian it was 17.3 µM; in the assay on SF-295 CNS it was 2.7 µM. For the same compound, the GI50 is 5.81 µM with SK-MEL-2 melanoma, 1.24 µM in the assay on SR leukemia, 10.3 µM in the assay on TK-10 renal and 6.81 µM in the assay on UO-31 renal. The TGI was 85.1 µM with ACHN renal; 14 µM with COLO 205 colon; 16.6 µM in the assay on HOP-62 NSCLC; 18.8 µM in the assay with LOX IMVI melanoma; more than 100 µM in the assay on OVCAR-5 ovarian; 12.2 µM in the assay on SF-295 CNS. The TGI in the assay on SK-MEL-2 melanoma was 26.8 µM; in the assay with SR leukemia, 87.4 µM; in the assay with TK-10 renal, more than 100 µM; in the assay with UO-31 renal, 28.8 µM.

`N#C/C1=C(\N)CCSSSC1`: the TGI was more than 100 µM in the assay with ACHN renal; more than 100 µM in the assay with COLO 205 colon; 89.6 µM in the assay with HOP-62 NSCLC; more than 100 µM with LOX IMVI melanoma; more than 100 µM with OVCAR-5 ovarian; 50.8 µM in the assay with SF-295 CNS. Further, the TGI with SK-MEL-2 melanoma was 90.5 µM; with SR leukemia it was more than 100 µM; in the assay with TK-10 renal it was more than 100 µM; in the assay with UO-31 renal, more than 100 µM.

Regarding `O=C1/C(=C/c2cccc(Cl)c2Cl)N=C(c2ccccc2)N1C1CC1`, the GI50 in the assay with ACHN renal is 16.7 µM; with COLO 205 colon it was 15.1 µM; with HOP-62 NSCLC, 8.37 µM; in the assay with LOX IMVI melanoma it was 7.11 µM; in the assay with OVCAR-5 ovarian it was 10.4 µM; in the assay with SF-295 CNS, 12.7 µM. In addition, the GI50 in the assay with SK-MEL-2 melanoma is 18.5 µM; in the assay on SR leukemia it was 21.5 µM; in the assay with TK-10 renal it was 10.7 µM; in the assay on UO-31 renal, 28.5 µM. In addition, the concentration for total growth inhibition (TGI) in the assay on ACHN renal was more than 50 µM; in the assay on COLO 205 colon it was more than 50 µM; in the assay on HOP-62 NSCLC, 16.5 µM; in the assay with LOX IMVI melanoma it was 17.4 µM; with OVCAR-5 ovarian, 21.1 µM; in the assay with SF-295 CNS, 31.3 µM. In addition, the TGI in the assay with SK-MEL-2 melanoma was more than 50 µM; in the assay on SR leukemia, more than 50 µM; with TK-10 renal, 27.7 µM; with UO-31 renal, more than 50 µM.

For `Cn1cc(C2=C(c3cn(CCCCO)c4ccccc34)C(=O)NC2=O)c2ccccc21`, the GI50 with ACHN renal is 6.38 µM; with COLO 205 colon, 7.28 µM; in the assay on HOP-62 NSCLC it was 9.95 µM; in the assay on LOX IMVI melanoma it was 5.62 µM; with OVCAR-5 ovarian, 13.5 µM; in the assay with SF-295 CNS, 5.9 µM. Further, the GI50 with SK-MEL-2 melanoma was 7.65 µM; with SR leukemia it was 6.05 µM; in the assay with TK-10 renal it was 10.1 µM; with UO-31 renal, 6.33 µM. Further, the TGI in the assay on ACHN renal is more than 23.4 µM; in the assay with COLO 205 colon, more than 19.5 µM; in the assay on HOP-62 NSCLC it was more than 25 µM; in the assay on LOX IMVI melanoma, more than 25 µM; in the assay with OVCAR-5 ovarian, more than 25 µM; with SF-295 CNS it was more than 25 µM. The TGI with SK-MEL-2 melanoma is 21.6 µM; in the assay on SR leukemia it was 21.4 µM; in the assay on TK-10 renal, more than 25 µM; with UO-31 renal, more than 20.1 µM.

In the case of `O=C1OCC2=C1C(c1cccc(Br)c1)c1cc3c(cc1N2CCO)CCC3` (centres undefined), the GI50 in the assay with ACHN renal was 0.0865 µM; in the assay with COLO 205 colon, 0.111 µM; in the assay with HOP-62 NSCLC it was 0.0888 µM; in the assay on LOX IMVI melanoma it was 0.119 µM; in the assay on OVCAR-5 ovarian, 0.322 µM; in the assay with SF-295 CNS it was 0.034 µM. Also, the GI50 is 0.231 µM in the assay with SK-MEL-2 melanoma, 0.185 µM in the assay with SR leukemia, 0.736 µM in the assay with TK-10 renal and 0.0997 µM in the assay with UO-31 renal. Also, the TGI in the assay on ACHN renal was 9.68 µM; in the assay on COLO 205 colon, 0.263 µM; with HOP-62 NSCLC it was 7.11 µM; in the assay on LOX IMVI melanoma it was 7.56 µM; in the assay with OVCAR-5 ovarian, 10 µM; with SF-295 CNS, 8.36 µM. For the same compound, the TGI with SK-MEL-2 melanoma came out at 8.32 µM; with SR leukemia, 22.2 µM; in the assay with TK-10 renal, 11.3 µM; in the assay on UO-31 renal, 8.2 µM.

Consider `CC(C)CC(NC(=O)OCc1ccccc1)C(=O)NC(Cc1ccccc1)C(=O)CCl` (stereo not drawn) (Cbz-Leu-Phe-CH2Cl; configuration not given here), for which the TGI in the assay with ACHN renal is 11.3 µM; in the assay with COLO 205 colon it was 8.44 µM; in the assay with HOP-62 NSCLC it was 30.5 µM; in the assay with LOX IMVI melanoma it was 2.08 µM; in the assay on OVCAR-5 ovarian it was 15.3 µM; in the assay with SF-295 CNS, 43.7 µM. Further, the TGI with SK-MEL-2 melanoma came to 7.37 µM; in the assay with SR leukemia, 4.66 µM; in the assay with TK-10 renal it was 3.24 µM; with UO-31 renal it was 18.2 µM.
